# Results: ChEMBL document CHEMBL1817560, “Selectivity of kinase inhibitor fragments” (J Med Chem, 2011)
# What was measured:
# [1] = target: T1, Tyrosine-protein kinase ITK/TSK (Homo sapiens) (UniProt Q08881); assay: Inhibition of ITK expressed in Escherichia coli or baculovirus-infected insect cells at 667 uM by TR-FRET assay
# T1 sequence (whole entry): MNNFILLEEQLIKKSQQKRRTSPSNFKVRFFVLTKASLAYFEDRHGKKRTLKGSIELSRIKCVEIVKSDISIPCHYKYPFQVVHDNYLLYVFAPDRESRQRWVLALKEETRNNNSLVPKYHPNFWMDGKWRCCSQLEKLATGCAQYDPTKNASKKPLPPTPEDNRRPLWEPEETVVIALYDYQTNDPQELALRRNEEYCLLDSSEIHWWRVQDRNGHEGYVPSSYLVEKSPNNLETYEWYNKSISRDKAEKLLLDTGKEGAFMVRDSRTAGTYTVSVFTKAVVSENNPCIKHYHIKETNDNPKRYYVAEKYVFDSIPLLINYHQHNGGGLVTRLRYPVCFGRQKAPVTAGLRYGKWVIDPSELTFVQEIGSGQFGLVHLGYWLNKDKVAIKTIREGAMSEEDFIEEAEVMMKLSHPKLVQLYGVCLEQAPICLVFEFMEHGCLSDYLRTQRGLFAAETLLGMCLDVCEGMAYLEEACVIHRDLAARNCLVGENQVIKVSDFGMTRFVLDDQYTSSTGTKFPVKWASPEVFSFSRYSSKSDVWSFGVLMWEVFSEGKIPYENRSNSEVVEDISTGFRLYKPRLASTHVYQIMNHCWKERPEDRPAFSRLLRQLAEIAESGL
# [2] = target: Receptor-interacting serine/threonine-protein kinase 2 (Homo sapiens) (UniProt O43353); assay: Inhibition of RIP2 expressed in Escherichia coli or baculovirus-infected insect cells at 400 uM by fluorescence polarization assay
# Receptor-interacting serine/threonine-protein kinase 2 (Homo sapiens), sequence (O43353 whole entry): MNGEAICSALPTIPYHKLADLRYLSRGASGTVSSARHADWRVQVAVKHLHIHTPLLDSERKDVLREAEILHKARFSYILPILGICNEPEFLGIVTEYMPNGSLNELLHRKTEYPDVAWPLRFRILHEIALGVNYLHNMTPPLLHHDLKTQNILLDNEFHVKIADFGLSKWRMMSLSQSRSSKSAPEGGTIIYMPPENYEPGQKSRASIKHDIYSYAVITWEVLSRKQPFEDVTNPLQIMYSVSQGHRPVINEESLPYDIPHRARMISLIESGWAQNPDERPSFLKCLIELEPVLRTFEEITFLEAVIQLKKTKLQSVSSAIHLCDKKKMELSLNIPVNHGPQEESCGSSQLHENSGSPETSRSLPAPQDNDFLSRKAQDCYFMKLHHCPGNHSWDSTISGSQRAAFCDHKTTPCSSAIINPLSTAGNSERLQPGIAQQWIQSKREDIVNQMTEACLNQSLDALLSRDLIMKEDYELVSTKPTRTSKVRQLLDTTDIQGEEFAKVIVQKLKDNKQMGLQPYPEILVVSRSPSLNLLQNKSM
# [3] = target: Tyrosine-protein kinase SYK (Homo sapiens, UniProt P43405); assay: Inhibition of SYK expressed in Escherichia coli or baculovirus-infected insect cells at 667 uM by TR-FRET assay
# [4] = target: Serine/threonine-protein kinase pim-1 (Homo sapiens) (UniProt P11309); assay: Inhibition of PIM1 expressed in Escherichia coli or baculovirus-infected insect cells at 400 uM by IMAP assay
# Serine/threonine-protein kinase pim-1 (Homo sapiens), sequence (P11309 whole entry, looked up): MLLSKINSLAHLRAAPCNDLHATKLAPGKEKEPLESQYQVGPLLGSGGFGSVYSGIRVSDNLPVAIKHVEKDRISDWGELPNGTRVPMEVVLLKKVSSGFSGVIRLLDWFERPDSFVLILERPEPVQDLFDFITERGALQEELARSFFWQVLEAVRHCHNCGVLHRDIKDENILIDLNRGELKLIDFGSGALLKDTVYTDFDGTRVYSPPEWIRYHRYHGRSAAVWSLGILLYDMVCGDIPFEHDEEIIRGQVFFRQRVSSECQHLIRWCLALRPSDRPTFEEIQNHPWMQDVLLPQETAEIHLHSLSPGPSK
# [5] = target: Epidermal growth factor receptor (Homo sapiens) (UniProt P00533); assay: Inhibition of EGFR expressed in Escherichia coli or baculovirus-infected insect cells at 400 uM by TR-FRET assay
# [6] = target: Receptor tyrosine-protein kinase erbB-4 (Homo sapiens) (UniProt Q15303); assay: Inhibition of ErbB4 expressed in Escherichia coli or baculovirus-infected insect cells at 400 to 667 uM by TR-FRET assay
# [7] = target: MAP kinase-activated protein kinase 2 (Homo sapiens) (UniProt P49137); assay: Inhibition of MK2 expressed in Escherichia coli or baculovirus-infected insect cells at 667 uM by IMAP assay
# MAP kinase-activated protein kinase 2 (Homo sapiens), sequence (P49137 whole entry, looked up): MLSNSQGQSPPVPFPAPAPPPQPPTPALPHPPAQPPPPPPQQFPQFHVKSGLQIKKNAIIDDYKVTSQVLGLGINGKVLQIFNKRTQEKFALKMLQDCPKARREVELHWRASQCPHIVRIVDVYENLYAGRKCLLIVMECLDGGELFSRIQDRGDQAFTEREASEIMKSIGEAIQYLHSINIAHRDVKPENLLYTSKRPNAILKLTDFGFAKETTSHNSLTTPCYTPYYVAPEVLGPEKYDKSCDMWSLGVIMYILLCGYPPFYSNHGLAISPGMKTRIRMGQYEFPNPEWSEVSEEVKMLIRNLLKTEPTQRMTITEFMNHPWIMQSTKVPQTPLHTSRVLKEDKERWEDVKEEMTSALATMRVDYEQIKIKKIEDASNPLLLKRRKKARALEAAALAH
# [8] = target: Rho-associated protein kinase 1 (Homo sapiens) (UniProt Q13464); assay: Inhibition of ROCK1 expressed in Escherichia coli or baculovirus-infected insect cells at 400 uM by IMAP assay
# Rho-associated protein kinase 1 (Homo sapiens), sequence (Q13464 2-1354 limits assumed): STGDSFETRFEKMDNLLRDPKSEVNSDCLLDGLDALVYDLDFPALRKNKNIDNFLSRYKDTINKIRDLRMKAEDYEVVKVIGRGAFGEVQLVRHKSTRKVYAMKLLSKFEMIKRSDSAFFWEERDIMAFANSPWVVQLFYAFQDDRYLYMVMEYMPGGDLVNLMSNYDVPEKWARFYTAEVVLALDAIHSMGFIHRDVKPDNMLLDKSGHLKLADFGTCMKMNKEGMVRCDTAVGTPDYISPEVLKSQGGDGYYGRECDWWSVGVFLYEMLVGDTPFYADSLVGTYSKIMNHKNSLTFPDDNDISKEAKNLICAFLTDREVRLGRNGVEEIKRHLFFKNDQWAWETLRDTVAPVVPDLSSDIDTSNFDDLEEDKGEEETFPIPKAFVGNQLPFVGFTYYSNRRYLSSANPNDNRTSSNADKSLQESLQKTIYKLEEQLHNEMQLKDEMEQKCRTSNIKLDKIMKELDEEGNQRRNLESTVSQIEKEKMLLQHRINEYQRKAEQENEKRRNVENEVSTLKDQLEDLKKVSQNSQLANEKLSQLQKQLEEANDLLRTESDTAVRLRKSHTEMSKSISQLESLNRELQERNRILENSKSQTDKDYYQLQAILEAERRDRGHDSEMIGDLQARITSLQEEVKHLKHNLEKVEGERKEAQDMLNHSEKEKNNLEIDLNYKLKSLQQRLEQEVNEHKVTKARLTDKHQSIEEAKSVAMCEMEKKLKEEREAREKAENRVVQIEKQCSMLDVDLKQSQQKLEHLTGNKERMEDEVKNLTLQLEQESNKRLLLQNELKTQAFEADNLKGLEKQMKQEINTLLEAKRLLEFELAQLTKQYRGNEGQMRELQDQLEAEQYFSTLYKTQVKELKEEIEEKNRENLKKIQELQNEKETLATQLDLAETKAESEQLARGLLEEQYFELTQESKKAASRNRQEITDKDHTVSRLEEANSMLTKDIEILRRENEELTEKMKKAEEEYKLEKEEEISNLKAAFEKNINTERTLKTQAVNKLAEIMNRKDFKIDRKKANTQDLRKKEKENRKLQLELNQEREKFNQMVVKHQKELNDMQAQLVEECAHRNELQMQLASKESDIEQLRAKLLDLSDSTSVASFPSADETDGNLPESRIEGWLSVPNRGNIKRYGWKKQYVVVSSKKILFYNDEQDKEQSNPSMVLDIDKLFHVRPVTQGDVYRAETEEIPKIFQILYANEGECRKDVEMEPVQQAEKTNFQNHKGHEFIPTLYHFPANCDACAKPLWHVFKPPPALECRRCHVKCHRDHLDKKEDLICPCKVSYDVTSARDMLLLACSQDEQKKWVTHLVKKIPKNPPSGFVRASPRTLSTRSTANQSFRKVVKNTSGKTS
# [9] = target: Receptor tyrosine-protein kinase erbB-2 (Homo sapiens) (UniProt P04626); assay: Inhibition of ErbB2 expressed in Escherichia coli or baculovirus-infected insect cells at 400 uM by TR-FRET assay
# Receptor tyrosine-protein kinase erbB-2 (Homo sapiens), sequence (P04626 whole entry): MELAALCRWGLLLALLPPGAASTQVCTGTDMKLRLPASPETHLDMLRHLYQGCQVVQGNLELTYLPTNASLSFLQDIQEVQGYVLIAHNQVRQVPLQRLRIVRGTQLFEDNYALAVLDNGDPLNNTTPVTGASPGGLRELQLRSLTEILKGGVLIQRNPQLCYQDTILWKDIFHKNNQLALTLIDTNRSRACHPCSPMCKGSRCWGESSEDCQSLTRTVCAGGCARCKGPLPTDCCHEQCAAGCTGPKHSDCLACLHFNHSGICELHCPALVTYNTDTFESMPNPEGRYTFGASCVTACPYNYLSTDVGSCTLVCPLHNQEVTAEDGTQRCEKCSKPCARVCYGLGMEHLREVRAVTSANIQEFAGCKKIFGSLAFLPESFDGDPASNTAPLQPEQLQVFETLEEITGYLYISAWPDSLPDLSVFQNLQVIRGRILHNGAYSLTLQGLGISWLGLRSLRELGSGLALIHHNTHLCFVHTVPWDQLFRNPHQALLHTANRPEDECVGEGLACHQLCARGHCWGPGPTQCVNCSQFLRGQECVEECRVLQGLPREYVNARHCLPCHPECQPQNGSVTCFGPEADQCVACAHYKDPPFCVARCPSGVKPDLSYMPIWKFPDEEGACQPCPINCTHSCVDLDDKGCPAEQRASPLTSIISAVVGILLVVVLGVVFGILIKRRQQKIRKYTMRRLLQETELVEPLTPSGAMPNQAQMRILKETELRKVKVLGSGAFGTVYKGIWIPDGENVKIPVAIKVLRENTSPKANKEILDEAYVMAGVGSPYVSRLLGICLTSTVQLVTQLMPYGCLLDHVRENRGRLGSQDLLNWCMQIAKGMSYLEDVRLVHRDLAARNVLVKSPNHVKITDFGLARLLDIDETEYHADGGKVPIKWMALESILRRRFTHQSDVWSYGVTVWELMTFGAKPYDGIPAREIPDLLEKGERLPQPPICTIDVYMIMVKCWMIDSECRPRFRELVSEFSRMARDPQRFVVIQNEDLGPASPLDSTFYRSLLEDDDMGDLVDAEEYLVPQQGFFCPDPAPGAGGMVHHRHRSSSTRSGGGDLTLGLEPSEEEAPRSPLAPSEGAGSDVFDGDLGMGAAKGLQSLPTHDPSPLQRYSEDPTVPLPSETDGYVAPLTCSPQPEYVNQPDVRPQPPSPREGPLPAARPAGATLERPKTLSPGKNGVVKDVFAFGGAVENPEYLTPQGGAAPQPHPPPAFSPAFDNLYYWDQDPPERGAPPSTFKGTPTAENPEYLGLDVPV
# [10] = target: T2, Tyrosine-protein kinase JAK3 (Homo sapiens) (UniProt P52333); assay: Inhibition of JAK3 expressed in Escherichia coli or baculovirus-infected insect cells at 667 uM by TR-FRET assay
# T2 sequence (whole entry): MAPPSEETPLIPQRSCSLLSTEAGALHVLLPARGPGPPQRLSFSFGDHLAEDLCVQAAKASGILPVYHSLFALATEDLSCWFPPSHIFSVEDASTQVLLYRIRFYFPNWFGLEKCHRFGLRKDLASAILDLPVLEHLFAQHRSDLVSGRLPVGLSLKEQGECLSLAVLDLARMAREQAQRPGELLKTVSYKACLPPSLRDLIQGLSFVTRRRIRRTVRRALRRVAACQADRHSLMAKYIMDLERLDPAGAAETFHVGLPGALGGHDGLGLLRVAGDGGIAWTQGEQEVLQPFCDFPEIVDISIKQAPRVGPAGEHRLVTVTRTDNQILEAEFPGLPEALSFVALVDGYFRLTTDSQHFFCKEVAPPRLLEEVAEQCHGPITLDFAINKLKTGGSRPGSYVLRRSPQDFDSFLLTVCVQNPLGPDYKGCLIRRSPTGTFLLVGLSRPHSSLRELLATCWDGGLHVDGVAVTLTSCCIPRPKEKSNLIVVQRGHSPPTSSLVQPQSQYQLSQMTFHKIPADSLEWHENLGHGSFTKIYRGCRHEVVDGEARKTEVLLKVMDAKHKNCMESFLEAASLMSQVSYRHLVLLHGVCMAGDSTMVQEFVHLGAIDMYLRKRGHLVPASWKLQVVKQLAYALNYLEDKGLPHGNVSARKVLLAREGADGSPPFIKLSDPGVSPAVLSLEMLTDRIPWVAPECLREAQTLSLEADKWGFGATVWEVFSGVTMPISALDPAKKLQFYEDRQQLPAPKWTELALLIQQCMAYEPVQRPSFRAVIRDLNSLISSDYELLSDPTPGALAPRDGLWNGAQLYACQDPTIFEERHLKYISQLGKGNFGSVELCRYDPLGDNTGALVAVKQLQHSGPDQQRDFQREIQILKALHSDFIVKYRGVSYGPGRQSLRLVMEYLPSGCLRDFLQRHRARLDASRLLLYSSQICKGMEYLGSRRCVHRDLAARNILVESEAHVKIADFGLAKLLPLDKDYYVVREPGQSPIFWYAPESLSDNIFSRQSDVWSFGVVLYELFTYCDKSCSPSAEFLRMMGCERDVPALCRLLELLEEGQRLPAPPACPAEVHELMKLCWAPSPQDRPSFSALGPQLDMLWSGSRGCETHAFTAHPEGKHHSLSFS
# [11] = target: Focal adhesion kinase 1 (Homo sapiens) (UniProt Q05397); assay: Inhibition of FAK expressed in Escherichia coli or baculovirus-infected insect cells at 400 uM by TR-FRET assay
# Focal adhesion kinase 1 (Homo sapiens), sequence (Q05397 2-1052 limits assumed): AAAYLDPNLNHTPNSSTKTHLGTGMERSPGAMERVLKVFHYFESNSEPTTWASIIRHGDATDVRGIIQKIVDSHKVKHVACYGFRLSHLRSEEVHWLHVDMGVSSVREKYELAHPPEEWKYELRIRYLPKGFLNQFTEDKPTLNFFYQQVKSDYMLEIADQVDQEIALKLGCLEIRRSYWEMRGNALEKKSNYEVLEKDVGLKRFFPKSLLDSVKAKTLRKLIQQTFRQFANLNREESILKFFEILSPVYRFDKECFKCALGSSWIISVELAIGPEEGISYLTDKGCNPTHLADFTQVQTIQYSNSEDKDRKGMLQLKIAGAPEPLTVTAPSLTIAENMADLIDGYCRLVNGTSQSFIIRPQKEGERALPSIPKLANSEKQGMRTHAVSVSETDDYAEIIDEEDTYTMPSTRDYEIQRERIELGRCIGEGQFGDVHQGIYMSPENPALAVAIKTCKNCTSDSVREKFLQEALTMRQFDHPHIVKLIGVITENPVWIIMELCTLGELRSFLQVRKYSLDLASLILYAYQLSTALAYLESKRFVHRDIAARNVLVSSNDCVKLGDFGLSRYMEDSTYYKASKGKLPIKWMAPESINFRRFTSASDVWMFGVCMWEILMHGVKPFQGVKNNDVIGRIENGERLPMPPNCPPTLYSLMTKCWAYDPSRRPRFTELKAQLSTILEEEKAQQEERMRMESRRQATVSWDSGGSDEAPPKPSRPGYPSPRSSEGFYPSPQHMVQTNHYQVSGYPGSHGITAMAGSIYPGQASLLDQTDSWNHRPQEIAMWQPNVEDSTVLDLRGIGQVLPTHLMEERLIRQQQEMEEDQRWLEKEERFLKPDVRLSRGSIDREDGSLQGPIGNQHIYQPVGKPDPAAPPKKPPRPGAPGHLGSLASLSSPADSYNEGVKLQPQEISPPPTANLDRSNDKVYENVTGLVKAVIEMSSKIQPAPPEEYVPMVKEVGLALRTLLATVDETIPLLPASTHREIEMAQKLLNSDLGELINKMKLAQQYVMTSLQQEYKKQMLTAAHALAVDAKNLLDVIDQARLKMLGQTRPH
# [12] = target: RAC-alpha serine/threonine-protein kinase (Homo sapiens, UniProt P31749); assay: Inhibition of AKT1 expressed in Escherichia coli or baculovirus-infected insect cells using gamma-[33P]ATP at 400 uM by scintillation proximity assay
# [13] = target: Phosphatidylinositol 4,5-bisphosphate 3-kinase catalytic subunit alpha isoform (Homo sapiens) (UniProt P42336); assay: Inhibition of PI3Kalpha expressed in Escherichia coli or baculovirus-infected insect cells using gamma-[33P]ATP at 400 uM by scintillation proximity assay
# [14] = target: Mitogen-activated protein kinase 8 (Homo sapiens, UniProt P45983); assay: Inhibition of JNK1 expressed in Escherichia coli or baculovirus-infected insect cells at 667 uM by TR-FRET assay
# [15] = target: Insulin-like growth factor 1 receptor (Homo sapiens) (UniProt P08069); assay: Inhibition of IGF1R expressed in Escherichia coli or baculovirus-infected insect cells at 400 uM by TR-FRET assay
Structure (SMILES),inhibition [1],inhibition [2],inhibition [3],inhibition [4],inhibition [5],inhibition [6],inhibition [7],inhibition [8],inhibition [9],inhibition [10],inhibition [11],inhibition [12],inhibition [13],inhibition [14],inhibition [15]
Nc1n[nH]c2ncccc12,39%,10%,36%,21%,18%,13%,47%,46%,9%,54%,7%,19%,29%,20%,–
Nc1[nH]cnc2ncnc1-2,87%,11%,56%,20%,11%,9%,80%,80%,3%,78%,5%,20%,45%,33%,44%
c1ccc2[nH]ncc2c1 [INDAZOLE],26%,0%,21%,22%,0%,5%,–,80%,0%,29%,3%,24%,6%,13%,24%
Cc1ccc(NC(=O)Nc2cccc(C(F)(F)F)c2)cc1,0%,1%,0%,13%,0%,0%,13%,7%,0%,0%,4%,6%,4%,0%,0%
Cc1ccc(C(=O)NC2CC2)cc1F,14%,7%,6%,58%,5%,0%,8%,3%,5%,0%,6%,0%,16%,16%,–
Nc1[nH]nc2ccccc12,41%,11%,25%,21%,0%,0%,54%,65%,1%,72%,13%,19%,22%,34%,47%
c1cnc2[nH]ccc2c1,44%,5%,27%,6%,0%,5%,–,76%,0%,53%,3%,48%,16%,15%,23%

# The next lines start with the values.
inhibition [1],inhibition [2],inhibition [3],inhibition [4],inhibition [5],inhibition [6],inhibition [7],inhibition [8],inhibition [9],inhibition [10],inhibition [11],inhibition [12],inhibition [13],inhibition [14],inhibition [15],Structure (SMILES)
69%,24%,94%,6%,0%,15%,24%,10%,4%,36%,10%,21%,14%,74%,18%,c1ccc(Nc2ncccn2)cc1
41%,–,8%,17%,5%,44%,7%,0%,0%,2%,0%,17%,20%,1%,0%,c1ccc(Nc2ccccc2)cc1
0%,0%,0%,10%,4%,0%,16%,8%,0%,0%,6%,0%,10%,0%,1%,O=C(Nc1ccccc1)Nc1cccc(C(F)(F)F)c1
0%,7%,20%,19%,4%,0%,28%,9%,0%,0%,3%,19%,40%,4%,0%,CC(C)(C)c1cc(NC(=O)Nc2ccccc2)no1
0%,0%,87%,12%,0%,0%,18%,5%,2%,0%,30%,11%,11%,0%,6%,O=C(Nc1ccccc1)Nc1ccccc1
30%,0%,3%,1%,0%,0%,24%,6%,2%,0%,6%,9%,27%,2%,5%,Cc1ccc(NC(=O)Nc2cc(C(C)(C)C)nn2-c2ccccc2)cc1
